In patent US6355799B1, “Substituted benzene compounds, process for their preparation, and herbicidal and defoliant compositions containing them” (ISK Americas Incorporated, priority 1997, dated 2002):

Tests used:
Format in all cases: in vivo
[1] = tested on: field corn (Zea mays L., var. Dekalb 535, CORN); test: Post-emerge test, crop safety; settings: phytotoxicity rating 0-100 (0 no damage, 100 complete death), 14 days after application
Procedure, shortened: (§1)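 Fourteen days after spraying, crop and weed injury was graded visually from 0, no effect, to 100, every plant dead. Test substances were dissolved in acetone and applied at 15–1000 g ai/ha with a flat-fan nozzle. Application was either pre-emergence, one day after sowing, or post-emergence at the 2–3 leaf stage.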

[2] = tested on: upland rice (Oryza sp., var. Tebonnet, RICE); test: Post-emerge test, crop safety; settings: phytotoxicity rating 0-100 (0 no damage, 100 complete death), 14 days after application
Procedure, shortened: as §1

[3] = tested on: field corn (Zea mays L., var. Dekalb 535, CORN); test: Pre-emerge test, crop safety; settings: pre-emerge, rated 14 days after application, 0 = no damage, 100 = complete death
Procedure, shortened: (§2)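 Rating: 0–100 visual injury, 14 DAA. Application: acetone, 187 l/ha, 15–1000 g ai/ha, flat-fan track sprayer with nozzle 40–45 cm above soil or canopy. Post-emerge runs used 0.25% v/v surfactant on 2–3 leaf plants.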

[4] = tested on: upland rice (Oryza sp., var. Tebonnet, RICE); test: Pre-emerge test, crop safety; settings: pre-emerge, rated 14 days after application, 0 = no damage, 100 = complete death
Procedure, shortened: as §2

[5] = tested on: johnsongrass (Sorghum halepense, SORHA); test: Post-emerge test, greenhouse herbicide activity screening; settings: phytotoxicity rating 0-100 (0 no damage, 100 complete death), 14 days after application
Procedure, shortened: (§3)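 Visual ratings on a 0-100 scale (0 no damage, 100 all plants dead) were taken at 14 days after treatment. Rates of 15-1000 g ai/ha in acetone, 187 l/ha, were sprayed onto soil one day after planting (pre-emerge) or onto 2-3 leaf plants with 0.25% v/v surfactant (post-emerge).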

[6] = tested on: lambsquarters (Chenopodium album, CHEAL); test: as above; settings: phytotoxicity rating 0-100 (0 no damage, 100 complete death), 14 days after application
Procedure, shortened: as §3

[7] = tested on: large crabgrass (Digitaria sanguinalis, DIGSA); test: as above; settings: phytotoxicity rating 0-100 (0 no damage, 100 complete death), 14 days after application
Procedure, shortened: as §3

[8] = tested on: redroot pigweed (Amaranthus retroflexus, AMARE); test: as above; settings: phytotoxicity rating 0-100 (0 no damage, 100 complete death), 14 days after application
Procedure, shortened: as §3

[9] = tested on: green foxtail (Setaria viridis, SETVI); test: as above; settings: phytotoxicity rating 0-100 (0 no damage, 100 complete death), 14 days after application
Procedure, shortened: as §3

[10] = tested on: velvetleaf (Abutilon theophrasti, ABUTH); test: as above; settings: phytotoxicity rating 0-100 (0 no damage, 100 complete death), 14 days after application
Procedure, shortened: as §3

[11] = tested on: ivyleaf morningglory (Ipomoea hederacea, IPOHE); test: as above; settings: phytotoxicity rating 0-100 (0 no damage, 100 complete death), 14 days after application
Procedure, shortened: as §3

[12] = tested on: sicklepod (Cassia obtusifolia, CASOB); test: as above; settings: phytotoxicity rating 0-100 (0 no damage, 100 complete death), 14 days after application
Procedure, shortened: as §3

[13] = tested on: barnyardgrass (Echinochloa crus-galli, ECHCG); test: as above; settings: phytotoxicity rating 0-100 (0 no damage, 100 complete death), 14 days after application
Procedure, shortened: as §3

[14] = tested on: redroot pigweed (Amaranthus retroflexus, AMARE); test: Pre-emerge test, greenhouse herbicide activity screening; settings: pre-emerge, rated 14 days after application, 0 = no damage, 100 = complete death
Procedure, shortened: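 Compounds in acetone were track-sprayed at 187 l/ha, 15–1000 g ai/ha, onto sandy loam pots. Pre-emerge seeds were sown one day before spraying, with surface watering afterwards. Post-emerge plants were at the 2–3 leaf stage and sprayed with 0.25% v/v non-ionic surfactant. Injury was rated 0–100 at 14 days.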

[15] = tested on: johnsongrass (Sorghum halepense, SORHA); test: as above; settings: pre-emerge, rated 14 days after application, 0 = no damage, 100 = complete death
Procedure, shortened: as §1

[16] = tested on: lambsquarters (Chenopodium album, CHEAL); test: as above; settings: pre-emerge, rated 14 days after application, 0 = no damage, 100 = complete death
Procedure, shortened: as §1

[17] = tested on: large crabgrass (Digitaria sanguinalis, DIGSA); test: as above; settings: pre-emerge, rated 14 days after application, 0 = no damage, 100 = complete death
Procedure, shortened: as §1

[18] = tested on: green foxtail (Setaria viridis, SETVI); test: as above; settings: pre-emerge, rated 14 days after application, 0 = no damage, 100 = complete death
Procedure, shortened: as §1

[19] = tested on: velvetleaf (Abutilon theophrasti, ABUTH); test: as above; settings: pre-emerge, rated 14 days after application, 0 = no damage, 100 = complete death
Procedure, shortened: as §1

[20] = tested on: ivyleaf morningglory (Ipomoea hederacea, IPOHE); test: as above; settings: pre-emerge, rated 14 days after application, 0 = no damage, 100 = complete death
Procedure, shortened: as §1

[21] = tested on: sicklepod (Cassia obtusifolia, CASOB); test: as above; settings: pre-emerge, rated 14 days after application, 0 = no damage, 100 = complete death
Procedure, shortened: as §1

[22] = tested on: barnyardgrass (Echinochloa crus-galli, ECHCG); test: as above; settings: pre-emerge, rated 14 days after application, 0 = no damage, 100 = complete death
Procedure, shortened: as §1

[23] = tested on: common ragweed (Ambrosia artemisizfolia L., AMBEL); test: as above; settings: pre-emerge, rated 14 days after application, 0 = no damage, 100 = complete death
Procedure, shortened: as §1

**Q.** Which results are given for `CCOC(=O)C(C)Nc1cc(OC(F)F)cc(F)c1-n1c(=O)cc(C(F)(F)F)n(C)c1=O` (stereo not shown) [Compound 1-53]?
**A.** Post-emerge Herbicidal Activity CORN (crop damage) ([1]; 63 g ai/ha): 0; Post-emerge Herbicidal Activity CORN (crop damage) ([1]; 250 g ai/ha): 30; Post-emerge Herbicidal Activity RICE (crop damage) ([2]; 63 g ai/ha): 10; Post-emerge Herbicidal Activity RICE (crop damage) ([2]; 250 g ai/ha): 60; Pre-emerge crop damage CORN (phytotoxicity rating, scale 0-100) ([3]; 63 g ai/ha): 95; Pre-emerge crop damage CORN (phytotoxicity rating, scale 0-100) ([3]; 250 g ai/ha): 100; Pre-emerge crop damage RICE (phytotoxicity rating, scale 0-100) ([4]; 63 g ai/ha): 50; Pre-emerge crop damage RICE (phytotoxicity rating, scale 0-100) ([4]; 250 g ai/ha): 90; Post-emerge Herbicidal Activity SORHA ([5]; 63 g ai/ha): 0; Post-emerge Herbicidal Activity SORHA ([5]; 250 g ai/ha): 40; Post-emerge Herbicidal Activity CHEAL ([6]; 63 g ai/ha): 50; Post-emerge Herbicidal Activity CHEAL ([6]; 250 g ai/ha): 100; Post-emerge Herbicidal Activity DIGSA ([7]; 63 g ai/ha): 0; Post-emerge Herbicidal Activity DIGSA ([7]; 250 g ai/ha): 50; Post-emerge Herbicidal Activity AMARE ([8]; 63 g ai/ha): 80; Post-emerge Herbicidal Activity AMARE ([8]; 250 g ai/ha): 100; Post-emerge Herbicidal Activity SETVI ([9]; 63 g ai/ha): 0; Post-emerge Herbicidal Activity SETVI ([9]; 250 g ai/ha): 80; Post-emerge Herbicidal Activity ABUTH ([10]; 63 g ai/ha): 100; Post-emerge Herbicidal Activity ABUTH ([10]; 250 g ai/ha): 100; Post-emerge Herbicidal Activity IPOHE ([11]; 63 g ai/ha): 95; Post-emerge Herbicidal Activity IPOHE ([11]; 250 g ai/ha): 100; Post-emerge Herbicidal Activity CASOB ([12]; 63 g ai/ha): 60; Post-emerge Herbicidal Activity CASOB ([12]; 250 g ai/ha): 95; Post-emerge Herbicidal Activity ECHCG ([13]; 63 g ai/ha): 0; Post-emerge Herbicidal Activity ECHCG ([13]; 250 g ai/ha): 50; Pre-emerge Herbicidal Activity AMARE (phytotoxicity rating, scale 0-100) ([14]; 63 g ai/ha): 100; Pre-emerge Herbicidal Activity AMARE (phytotoxicity rating, scale 0-100) ([14]; 250 g ai/ha): 100; Pre-emerge Herbicidal Activity SORHA (phytotoxicity rating, scale 0-100) ([15]; 63 g ai/ha): 50; Pre-emerge Herbicidal Activity SORHA (phytotoxicity rating, scale 0-100) ([15]; 250 g ai/ha): 90; Pre-emerge Herbicidal Activity CHEAL (phytotoxicity rating, scale 0-100) ([16]; 63 g ai/ha): 100; Pre-emerge Herbicidal Activity CHEAL (phytotoxicity rating, scale 0-100) ([16]; 250 g ai/ha): 100; Pre-emerge Herbicidal Activity DIGSA (phytotoxicity rating, scale 0-100) ([17]; 63 g ai/ha): 40; Pre-emerge Herbicidal Activity DIGSA (phytotoxicity rating, scale 0-100) ([17]; 250 g ai/ha): 90; Pre-emerge Herbicidal Activity SETVI (phytotoxicity rating, scale 0-100) ([18]; 63 g ai/ha): 50; Pre-emerge Herbicidal Activity SETVI (phytotoxicity rating, scale 0-100) ([18]; 250 g ai/ha): 95; Pre-emerge Herbicidal Activity ABUTH (phytotoxicity rating, scale 0-100) ([19]; 63 g ai/ha): 100; Pre-emerge Herbicidal Activity ABUTH (phytotoxicity rating, scale 0-100) ([19]; 250 g ai/ha): 100; Pre-emerge Herbicidal Activity IPOHE (phytotoxicity rating, scale 0-100) ([20]; 63 g ai/ha): 50; Pre-emerge Herbicidal Activity IPOHE (phytotoxicity rating, scale 0-100) ([20]; 250 g ai/ha): 95; Pre-emerge Herbicidal Activity CASOB (phytotoxicity rating, scale 0-100) ([21]; 63 g ai/ha): 0; Pre-emerge Herbicidal Activity CASOB (phytotoxicity rating, scale 0-100) ([21]; 250 g ai/ha): 50; Pre-emerge Herbicidal Activity ECHCG (phytotoxicity rating, scale 0-100) ([22]; 63 g ai/ha): 0; Pre-emerge Herbicidal Activity ECHCG (phytotoxicity rating, scale 0-100) ([22]; 250 g ai/ha): 80; Pre-emerge Herbicidal Activity AMBEL (phytotoxicity rating, scale 0-100) ([23]; 63 g ai/ha): 50; Pre-emerge Herbicidal Activity AMBEL (phytotoxicity rating, scale 0-100) ([23]; 250 g ai/ha): 90
